From patent US20080171783A1, “COMPOSITIONS AND METHODS FOR TREATING HYPERPROLIFERATIVE DISEASE” (Migenix Inc., priority 2006, published 2008)

Legend:
[1] = system: Jurkat; assay: Cell viability by XTT
Procedure: (§1) Compounds were solubilized at […] in DMSO and were stored at −20° C. Test compounds were initially tested at a single concentration of 10 μM and a subset of test compounds were further tested in selected cell lines using a six concentration dose response curve.
(§2) Cell Preparation Cancer cell lines were passaged in T-75 flasks prior to use in the assay in cell culture medium recommended by the ATCC (American Type Culture Collection; Table 6). On the day preceding the assay, the cells were split 1:2 to assure they were in an exponential growth phase at the time of compound treatment. Total cell and viability quantification was performed using a hemocytometer and Trypan Blue dye exclusion. […] The cells were resuspended at the appropriate cell per mL (Table 6) in tissue culture medium and added to the microtitre plates in a volume of 100 μL. Colon cell lines were incubated overnight at 37° C./5% CO2 to allow for cell adherence to the plates.
(§3) Plate Format: Each plate contains cell control wells (cells only), drug calorimetric control wells (drug only) as well as experimental wells (drug plus cells). Samples were tested in triplicate at a concentration of 10 μM and five half-logarithmic dilutions.
(§4) Cell Viability by XTT: Following incubation at 37° C. in a 5% CO2 incubator for four days, the test plates were stained with the tetrazolium dye XTT (2,3-bis(2-methoxy-4-nitro-5-sulfophenyl)-5-[(phenylamino)carbonyl]-2H-tetrazolium hydroxide). XTT-tetrazolium was metabolized by the mitochondrial enzymes of metabolically active cells to a soluble formazan product. XTT solution was prepared daily as a stock of 1 mg/mL in RPMI1640. Phenazine methosulfate (PMS) solution was prepared at 0.15 mg/mL in phosphate buffered saline (PBS) and stored in the dark at −20° C. XTT/PMS stock was prepared immediately before use by adding 40 μL of PMS per mL of XTT solution. Fifty (50) microlitres of XTT/PMS was added to each well of the plate and the plate was reincubated for 4 hours at 37° C. Plates were sealed with adhesive plate sealers and shaken gently or inverted several times to mix the soluble formazan product and the plate was read spectrophotometrically at 450/650 nm with a Molecular Devices Vmax plate reader. […] An Average Response Factor (ARF) was calculated for each compound by averaging the ten Percentage of Control values for the cell lines. […] Deviations below 100% control indicate activity. The concentration of each tested compound is 10 μM.

[2] = system: THP-1; assay: Cell viability by XTT
Procedure: as §1, §2, §3, §4

[3] = system: Caco-2; assay: Cell viability by XTT
Procedure: as §1, §2, §3, §4

[4] = system: HT29; assay: cells
Procedure: as §1, §2, §3, §4

[5] = target: T1, human polymerase alpha (Homo sapiens, UniProt P09884); assay: Human polymerase alpha inhibition (Replizyme kit); format: biochemical; conditions: dose response
T1 construct: purchased Replizyme Ltd (Heslington, York, UK)
T1 sequence (P09884 1-1462): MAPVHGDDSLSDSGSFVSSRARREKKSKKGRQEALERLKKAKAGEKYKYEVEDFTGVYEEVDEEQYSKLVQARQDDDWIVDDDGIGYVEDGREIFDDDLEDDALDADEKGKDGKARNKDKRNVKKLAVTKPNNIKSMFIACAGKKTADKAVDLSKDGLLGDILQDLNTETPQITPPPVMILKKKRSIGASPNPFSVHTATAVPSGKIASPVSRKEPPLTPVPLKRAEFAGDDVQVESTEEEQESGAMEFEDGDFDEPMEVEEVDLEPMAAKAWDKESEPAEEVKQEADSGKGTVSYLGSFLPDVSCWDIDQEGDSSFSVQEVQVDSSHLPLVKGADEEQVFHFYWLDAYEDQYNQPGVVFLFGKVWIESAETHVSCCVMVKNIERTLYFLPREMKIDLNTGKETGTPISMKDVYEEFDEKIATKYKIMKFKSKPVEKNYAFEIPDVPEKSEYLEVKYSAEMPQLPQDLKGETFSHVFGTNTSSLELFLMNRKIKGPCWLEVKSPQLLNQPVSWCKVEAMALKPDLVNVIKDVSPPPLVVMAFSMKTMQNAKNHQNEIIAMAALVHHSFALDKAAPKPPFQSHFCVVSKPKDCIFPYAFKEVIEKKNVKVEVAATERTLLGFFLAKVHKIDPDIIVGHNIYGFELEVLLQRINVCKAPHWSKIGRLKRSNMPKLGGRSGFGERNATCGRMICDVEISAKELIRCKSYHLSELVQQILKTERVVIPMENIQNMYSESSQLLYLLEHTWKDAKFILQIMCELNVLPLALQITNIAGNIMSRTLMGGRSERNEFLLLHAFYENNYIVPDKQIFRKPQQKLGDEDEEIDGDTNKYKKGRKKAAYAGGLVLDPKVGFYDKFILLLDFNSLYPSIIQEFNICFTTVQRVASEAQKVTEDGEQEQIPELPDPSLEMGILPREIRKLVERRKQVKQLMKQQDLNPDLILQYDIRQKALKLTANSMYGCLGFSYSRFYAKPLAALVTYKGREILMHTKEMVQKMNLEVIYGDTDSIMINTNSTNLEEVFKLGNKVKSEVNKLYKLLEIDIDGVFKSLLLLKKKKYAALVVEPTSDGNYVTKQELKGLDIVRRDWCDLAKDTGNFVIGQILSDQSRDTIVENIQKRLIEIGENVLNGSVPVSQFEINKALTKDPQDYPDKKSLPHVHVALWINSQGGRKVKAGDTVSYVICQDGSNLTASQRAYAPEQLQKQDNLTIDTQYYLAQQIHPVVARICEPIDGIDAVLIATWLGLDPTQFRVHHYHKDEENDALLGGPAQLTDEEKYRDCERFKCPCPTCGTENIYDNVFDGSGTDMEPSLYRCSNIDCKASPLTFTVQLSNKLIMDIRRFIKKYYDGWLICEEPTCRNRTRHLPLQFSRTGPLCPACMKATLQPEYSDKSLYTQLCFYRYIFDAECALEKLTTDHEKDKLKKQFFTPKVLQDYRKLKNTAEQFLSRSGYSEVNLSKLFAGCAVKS
Procedure: Calf polymerase alpha and human polymerase alpha investigations were performed with a kit available from Replizyme Ltd (Heslington, York, UK).

| IC50 [5] [µM] | Structure (SMILES) | CC50 ([1]; Homo sapiens, read-out: Activity (TC50)) [µM] | Percentage of Cell Control ([1]; single dose 10 μM, four days) [%] | CC50 ([2]; Homo sapiens, THP-1, read-out: Activity (TC50)) [µM] | Percentage of Cell Control ([2]; THP-1, single dose 10 μM, four days) [%] | Percentage of Cell Control ([3]; Caco-2, single dose 10 μM, four days) [%] | CC50 ([3]; Homo sapiens, Caco-2, read-out: Activity (TC50)) [µM] | Percentage of Cell Control ([4]; HT29, single dose 10 μM, four days) [%] | CC50 ([4]; Homo sapiens, HT-29, read-out: Activity (TC50)) [µM] |
| --- | --- | --- | --- | --- | --- | --- | --- | --- | --- |
| – | CC(C)(C)c1ccc(NC(=O)[C@H](CCCCN)NC(=O)OCC2c3ccccc3-c3ccccc32)cc1 [Compound 105, (S)-[5-AMINO-1-(4-TERT-BUTYL-PHENYLCARBAMOYL)-PENTYL]-CARBAMIC ACID 9H-FLUOREN-9-YLMETHYL ESTER] | 2.5 | 23.5 | 6.7 | 0 | 0 | 8.6 | 13.8 | 8.5 |
| 10 | Cc1cc2cc(NC(=O)[C@H](CCCNC(=O)CN)NC(=O)Nc3ccc4c(c3)Cc3ccccc3-4)ccc2[nH]1 [Compound 297, (S)-5-(2-AMINO-ACETYLAMINO)-2-[3-(9H-FLUOREN-2-YL)-UREIDO]-PENTANOIC ACID (2-METHYL-1H-INDOL-5-YL)-AMIDE] | – | – | – | – | – | – | – | – |
